Values after ≈ are worked out from the molar mass of the structure shown.
How the values were obtained:
[1] = tested on: Aspergillus flavus ATCC MYA-1004; assay: In vitro assay for antifungal activity (MIC90); assay type: cell-based; conditions: RPMI 1640, growth read after 48 hours, duplicate; for MIC90: read-out: MIC90 (concentration at which 90% of the fungi were inhibited compared to the negative control)
Method: (§1) Fungal strains to be tested were inoculated onto Sabouraud dextrose agar, YM agar, and potato dextrose agar and cultured at 35° C. for two to three days. Individual single colonies of the yeast fungi selected out of the cultured strains were suspended in 5 ml of 0.85% sterile saline, followed by correction to adjust the absorbance thereof at 530 nm to 0.108. The suspensions were diluted serially by 1:50 and then 1:20 in RPMI 1640 media to prepare liquid inocula ranging in cell count from 1.0×10^3 to 5.0×10^3 CFU/ml. As for filamentous fungi, their spores were suspended in 0.85% sterile saline and the suspensions were corrected with sterile saline to show optical transmittance at 530 nm of 80 to 82%. A dilution of 1:50 was made with RPMI 1640 media to prepare liquid inocula having cell counts from […] to 5×10^4 CFU/ml.
(§2) Antifungal samples were prepared by diluting the compounds of the present inventions in RPMI 1640 media to serial concentrations from 0.0625 to 32 μg/ml. As a vehicle, DMSO was contained in a final concentration of 1% (V/V) in the antifungal samples. 0.1 ml of each of the dilutions in series was added to equal volume of each of the fungal inocula.

[2] = tested on: Aspergillus fumigatus ATCC MYA-1163; assay: In vitro assay for antifungal activity (MIC90); assay type: cell-based; conditions: RPMI 1640, growth read after 48 hours, duplicate; for MIC90: read-out: MIC90 (concentration at which 90% of the fungi were inhibited compared to the negative control)
Method: as §1, §2

[3] = tested on: Aspergillus niger ATCC 9142; assay: In vitro assay for antifungal activity (MIC90); assay type: cell-based; conditions: duplicate; for MIC90 (concentration at which 90% of the fungi were inhibited compared to the negative control): RPMI 1640, growth read after 48 hours; for MIC90: ATCC9142, RPMI 1640, growth read after 48 hours, read-out: MIC90 (concentration at which 90% of the fungi were inhibited compared to the negative control)
Method: as §1, §2

[4] = tested on: Aspergillus terreus ATCC 28301; assay: In vitro assay for antifungal activity (MIC90); assay type: cell-based; conditions: duplicate; for MIC90 (concentration at which 90% of the fungi were inhibited compared to the negative control): RPMI 1640, growth read after 48 hours; for MIC90: ATCC28301, RPMI 1640, growth read after 48 hours, read-out: MIC90 (concentration at which 90% of the fungi were inhibited compared to the negative control)
Method: as §1, §2

[5] = tested on: Candida albicans ATCC 32033; assay: In vitro assay for antifungal activity (MIC90); assay type: cell-based; conditions: duplicate; for MIC90 (concentration at which 90% of the fungi were inhibited compared to the negative control): RPMI 1640, growth read after 24 hours; for MIC90: ATCC32033, RPMI 1640, growth read after 24 hours, read-out: MIC90 (concentration at which 90% of the fungi were inhibited compared to the negative control)
Method: as §1, §2

[6] = tested on: Candida glabrata ATCC 34138; assay: In vitro assay for antifungal activity (MIC90); assay type: cell-based; conditions: duplicate; for MIC90 (concentration at which 90% of the fungi were inhibited compared to the negative control): RPMI 1640, growth read after 24 hours; for MIC90: Nakaseomyces glabratus, ATCC34138, RPMI 1640, growth read after 24 hours, read-out: MIC90 (concentration at which 90% of the fungi were inhibited compared to the negative control)
Method: as §1, §2

Candida krusei ATCC 6258 = assay: In vitro assay for antifungal activity (MIC90); assay type: cell-based; conditions: duplicate; for MIC90 (concentration at which 90% of the fungi were inhibited compared to the negative control): RPMI 1640, growth read after 24 hours; for MIC90: Pichia kudriavzevii, ATCC6258, RPMI 1640, growth read after 24 hours, read-out: MIC90 (concentration at which 90% of the fungi were inhibited compared to the negative control)
Method: as §1, §2

[7] = tested on: Cryptococcus neoformans ATCC 4065; assay: In vitro assay for antifungal activity (MIC90); assay type: cell-based; conditions: for MIC90 (concentration at which 90% of the fungi were inhibited compared to the negative control): RPMI 1640, duplicate; for MIC90: ATCC4065, RPMI 1640, duplicate, read-out: MIC90 (concentration at which 90% of the fungi were inhibited compared to the negative control)
Method: as §1, §2

[8] = tested on: Candida albicans (ATCC 36082); assay: In vivo assay for antifungal activity (survival of infected mice); conditions: ICR mice infected i.v. with Candida albicans ATCC 36082; 20 mg/kg orally once a day for seven days (day 0 to day 6); groups of 10
Method: Candida albicans (ATCC 36082) was grown in YM broth on a rotary shaker (200 rpm, 26° C.) for about 12 hours to a concentration of 2.5×10^7 CFU/ml and used to infect ICR mice at a dose of 0.2 ml/head via caudal veins. Suspensions or solutions of the azole compounds in a 25% beta-hydroxypropyl methylcellulose base were orally administered at a dose of 20 mg/kg to respective infected ICR mice in groups of 10, the condition and body weights of the mice were monitored, and autopsies were finally conducted. For a negative control, the vehicle alone was used while fluconazole was administered to a positive control. The mice were inoculated once with the fungal preparation on the day of commencement of the administration. The test materials of interest and the positive control material were orally administered to the inoculated mice once a day for seven days from day 0 to day 6, with the first oral administration made five hours after the fungal inoculation (day 0). The periods of time for which the infected mice lived were counted.
The number of mice which survived the fungal infection for 21 days following the inoculation was represented as % survival for each test group, and the results are given in Table 11, below. All members of the negative control were dead 8 days after the fungal infection, while all of the groups administered with Compound 50 were dead 18 days after the fungal infection.

Assay for acute toxicity = assay type: in vivo; conditions: mice; oral administration, to a dose of 1000 mg/kg; observed for two weeks; suspension in 25% beta-hydroxypropyl methylcellulose base or polyethylene glycol 400

Row | Compound | MIC90 (concentration at which 90% of the fungi were inhibited compared to the negative control) [1] | MIC90 (concentration at which 90% of the fungi were inhibited compared to the negative control) [2] | MIC90 (concentration at which 90% of the fungi were inhibited compared to the negative control) [3] | MIC90 (concentration at which 90% of the fungi were inhibited compared to the negative control) [4] | MIC90 (concentration at which 90% of the fungi were inhibited compared to the negative control) [5] | MIC90 (concentration at which 90% of the fungi were inhibited compared to the negative control) [6] | MIC90 (concentration at which 90% of the fungi were inhibited compared to the negative control) (Candida krusei ATCC 6258) | MIC90 (concentration at which 90% of the fungi were inhibited compared to the negative control) [7] | % Survival on Day 21 [8] | acute toxicity: toxic syndromes observed (Assay for acute toxicity) | MIC90 [1] | MIC90 [2] | MIC90 [3] | MIC90 [4] | MIC90 [5] | MIC90 [6] | MIC90 (Candida krusei ATCC 6258) | MIC90 [7]
1 | C[C@@H](n1cc2cc(F)ccc2n1)[C@](O)(Cn1cncn1)c1ccc(F)cc1F [Example 56] | 2 µg/mL | 0.5 µg/mL | 2 µg/mL | 2 µg/mL | ≦0.015 μg/ml | 2 µg/mL | 1 µg/mL | 0.125 µg/mL | – | – | – | – | – | – | – | – | – | –
2 | C[C@@H](n1cc2cc(Br)ccc2n1)[C@](O)(Cn1cncn1)c1ccc(F)cc1F [Example 60] | 1 µg/mL | 0.5 µg/mL | 1 µg/mL | 1 µg/mL | ≦0.015 μg/ml | 2 µg/mL | 1 µg/mL | 1 µg/mL | 10% | no toxic syndromes | – | – | – | – | – | – | – | –
3 | Cc1c2cc(F)ccc2nn1[C@H](C)[C@](O)(Cn1cncn1)c1ccc(F)cc1F [Example 72] | 8 µg/mL | 4 µg/mL | 8 µg/mL | 4 µg/mL | 0.031 µg/mL | 8 µg/mL | 8 µg/mL | 1 µg/mL | – | – | – | – | – | – | – | – | – | –
4 | CCc1c2cc(F)ccc2nn1[C@H](C)[C@](O)(Cn1cncn1)c1ccc(F)cc1F [Example 100] | 16 µg/mL | 16 µg/mL | >16 µg/mL | 16 µg/mL | ≦0.015 μg/ml | 8 µg/mL | 4 µg/mL | 0.25 µg/mL | – | – | – | – | – | – | – | – | – | –
5 | Cc1nn([C@H](C)[C@](O)(Cn2cncn2)c2ccc(F)cc2F)c2ccc([N+](=O)[O-])cc12 [Example 106, (2R,3R)-2-(2,4-Difluorophenyl)-3-(3-methyl-5-nitro-1H-indazol-1-yl)-1-(1H-1,2,4-triazol-1-yl)butan-2-ol] | – | – | – | – | – | – | – | – | – | – | 8 µg/mL (≈ 18.7 µM) | 8 µg/mL (≈ 18.7 µM) | 16 µg/mL (≈ 37.3 µM) | 4 µg/mL (≈ 9.34 µM) | 0.031 µg/mL (≈ 0.0724 µM) | 8 µg/mL (≈ 18.7 µM) | 4 µg/mL (≈ 9.34 µM) | 0.5 µg/mL (≈ 1.17 µM)
6 | C[C@@H](n1ncc2cc([N+](=O)[O-])ccc21)[C@](O)(Cn1cncn1)c1ccc(F)cc1F [Example 234, (2R,3R)-2-(2,4-difluorophenyl)-3-(5-nitro-1H-indazol-1-yl)-1-(1H-1,2,4-triazol-1-yl)butan-2-ol] | – | – | – | – | – | – | – | – | 40% | no toxic syndromes | 1 µg/mL (≈ 2.41 µM) | 2 µg/mL (≈ 4.83 µM) | 2 µg/mL (≈ 4.83 µM) | 2 µg/mL (≈ 4.83 µM) | ≤ 0.015 µg/mL | 4 µg/mL (≈ 9.65 µM) | 0.5 µg/mL (≈ 1.21 µM) | 0.125 µg/mL (≈ 0.302 µM)
7 | OC(Cn1cncn1)(Cn1cncn1)c1ccc(F)cc1F [Fluconazole, fluconazole, reference compound] | – | – | – | – | – | – | – | – | 20% | – | > 128 µg/mL | > 128 µg/mL | > 128 µg/mL | > 128 µg/mL | 1 µg/mL (≈ 3.27 µM) | > 32 µg/mL | > 8 µg/mL | 8 µg/mL (≈ 26.1 µM)

Continued, in another order:

Row | MIC90 (concentration at which 90% of the fungi were inhibited compared to the negative control) [1] | MIC90 (concentration at which 90% of the fungi were inhibited compared to the negative control) [2] | MIC90 (concentration at which 90% of the fungi were inhibited compared to the negative control) [3] | MIC90 (concentration at which 90% of the fungi were inhibited compared to the negative control) [4] | MIC90 (concentration at which 90% of the fungi were inhibited compared to the negative control) [5] | MIC90 (concentration at which 90% of the fungi were inhibited compared to the negative control) [6] | MIC90 (concentration at which 90% of the fungi were inhibited compared to the negative control) (Candida krusei ATCC 6258) | MIC90 (concentration at which 90% of the fungi were inhibited compared to the negative control) [7] | Compound | % Survival on Day 21 [8] | acute toxicity: toxic syndromes observed (Assay for acute toxicity) | MIC90 [1] | MIC90 [2] | MIC90 [3] | MIC90 [4] | MIC90 [5] | MIC90 [6] | MIC90 (Candida krusei ATCC 6258) | MIC90 [7]
8 | 0.5 µg/mL | 0.5 µg/mL | 2 µg/mL | 1 µg/mL | ≦0.015 μg/ml | 8 µg/mL | 0.5 µg/mL | 0.25 µg/mL | C[C@@H](n1ncc2cc(NCc3ccc(F)cc3)ccc21)[C@](O)(Cn1cncn1)c1ccc(F)cc1F [Example 244] | – | – | – | – | – | – | – | – | – | –
9 | 1 µg/mL | 1 µg/mL | 4 µg/mL | 2 µg/mL | ≦0.015 μg/ml | 8 µg/mL | 0.5 µg/mL | 0.25 µg/mL | C[C@@H](n1ncc2cc(NCc3ccc(OC(F)(F)F)cc3)ccc21)[C@](O)(Cn1cncn1)c1ccc(F)cc1F [Example 247] | – | – | – | – | – | – | – | – | – | –
10 | 0.5 µg/mL | 1 µg/mL | 4 µg/mL | 2 µg/mL | ≦0.015 μg/ml | 8 µg/mL | 0.5 µg/mL | 0.25 µg/mL | C[C@@H](n1ncc2cc(NCc3ccc(F)cc3F)ccc21)[C@](O)(Cn1cncn1)c1ccc(F)cc1F [Example 250] | – | – | – | – | – | – | – | – | – | –
11 | 2 µg/mL | 8 µg/mL | 16 µg/mL | 4 µg/mL | ≦0.015 μg/ml | 8 µg/mL | 1 µg/mL | 0.5 µg/mL | C[C@@H](n1ncc2cc(NCC3CCCCC3)ccc21)[C@](O)(Cn1cncn1)c1ccc(F)cc1F [Example 309] | – | – | – | – | – | – | – | – | – | –
